Experimental data from US20150342964A1, “DEXAMETHASONE POLYMER IMPLANT FOR PAIN” (Warsaw Orthopedic, Inc., priority 2014, published 2015).
Entries after “also recorded” stand apart in the source; their conditions may differ.

Columns and labels:
[1] = Body weight, side effects and adverse reactions observed over the 57-day rat CCI study; details: systemic, sc 0.02 mg/kg every day, 57-day study
[2] = test system: rat chronic constriction injury (CCI) model; assay: von Frey Monofilament Test (mechanical/tactile allodynia) in rat CCI model of neuropathic pain; details: systemic, subcutaneous 0.02 mg/kg every day from day 7 post-surgery
[3] = test system: rat chronic constriction injury (CCI) model; assay: Thermal Paw Withdrawal Latency Test (thermal hyperalgesia) in rat CCI model of neuropathic pain; details: systemic, subcutaneous 0.02 mg/kg every day from day 7 post-surgery; p<0.05

Compound	overt side effects or adverse reactions at the site of injection [1]	mechanical allodynia (paw withdrawal threshold) relative to either PBS or unloaded pellet [2]	thermal paw withdrawal responses/latencies relative to both PBS and unloaded PLA pellet [3]
Clc1cccc(Cl)c1N=C1NCCN1 [clonidine]	no overt side effects or adverse reactions at the site of injection; also recorded: did not cause any overt side effects or adverse reactions	no effect on paw withdrawal threshold responses	increased thermal paw withdrawal latencies on various test days
C[C@@H]1C[C@H]2[C@@H]3CCC4=CC(=O)C=C[C@]4(C)[C@@]3(F)[C@@H](O)C[C@]2(C)[C@@]1(O)C(=O)CO [dexamethasone, (8S, 9R, 10S, 11S, 13S, 14S, 16R, 17R)-9-Fluoro-11,17-dihydroxy-17-(2-hydroxyacetyl)-10,13,16-trimethyl-6,7,8,11,12,14,15,16-octahydro-cyclopenta[a]phenanthren-3-one]	no overt side effects or adverse reactions at the site of injection; also recorded: did not cause any overt side effects or adverse reactions	–	–
